# Data: patent US10822309B2, “Crystalline form of Eluxadoline” (priority 2017, dated 2020)
# Assay: PXRD studies of capped and uncapped samples after storage in stability chambers (polymorphic stability)
# Type: physicochemical
# Method: Eluxadoline Form APO-I can be characterized by a PXRD diffractogram comprising, among other peaks, characteristic peaks, expressed in degrees 2θ (±0.2°), at 6.4°, 6.9° and 11.4°. Preferably, the PXRD diffractogram further comprises at least three peaks, expressed in degrees 2θ (±0.2°), selected from the group consisting of 8.7°, 9.9°, 12.7°, 14.8°, 15.8°, 17.5°, 18.9°, 19.8° and 23.8°. More preferably, the PXRD diffractogram further comprises peaks, expressed in degrees 2θ (±0.2°), at 8.7°, 9.9°, 12.7°, 14.8°, 15.8°, 17.5°, 18.9°, 19.8° and 23.8°. PXRD studies of capped and uncapped samples of Eluxadoline Form APO-I have shown that this crystal form is stable following storage in stability chambers maintained at 27° C./60% RH and 40° C./75% RH for at least 10 days.
# PXRD diffractograms were recorded on a Bruker D8 Discover powder X-ray diffractometer (Bruker-AXS, Karlsruhe, Germany). The generator was a Micro-focus X-ray source (IMSTube: Cu tube with 1.54184 A) with a voltage of 50 kV and current of 1.00 mA, using a divergence slit of 0.3 mm and collimator of 0.3 mm. For each sample, one frame was collected using a still scan with a Pilatus 3R-100 kA detector at the distance of 154.72 mm from the sample. Raw data were evaluated using the program EVA (Bruker-AXS, Karlsruhe, Germany).
smiles,measurement,setting,value
"COc1ccc(CN(C(=O)[C@@H](N)Cc2c(C)cc(C(N)=O)cc2C)[C@@H](C)c2nc(-c3ccccc3)c[nH]2)cc1C(=O)O [Eluxadoline Form APO-I, 5-({[(2S)-2-amino-3-(4-carbamoyl-2,6-dimethylphenyl)propionyl]-[(1S)-1-(4-phenyl-1H-imidazol-2-yl)ethyl]amino}-methyl)-2-methoxybenzoic acid]",crystal form stable following storage (PXRD),stability chamber 27° C./60% RH,at least 10 days
same,crystal form stable / resists polymorph conversion following storage (PXRD),stability chamber 40° C./75% RH,at least 10 days
